Bridge positions count the residues as written; N and C are the ends. Square brackets hold non-standard residues; d marks the D form. Peptide text beside a SMILES is read from it. * marks the point of attachment. ξ: configuration not given here. Trp(5-CN) = N#Cc1ccc2[nH]cc(C[C@H](N)C(=O)O)c2c1; Trp(7-Cl) = N[C@@H](Cc1c[nH]c2c(Cl)cccc12)C(=O)O; Phe(4-CONH2) = NC(=O)c1ccc(C[C@H](N)C(=O)O)cc1; Phe(4-COOH) = N[C@@H](Cc1ccc(C(=O)O)cc1)C(=O)O; Bip = N[C@@H](Cc1ccc(-c2ccccc2)cc1)C(=O)O; Phe(3-OMe) = COc1cccc(C[C@H](N)C(=O)O)c1; Phe(3-Me) = Cc1cccc(C[C@H](N)C(=O)O)c1; Cyclopropanecarbonyl = O=C(C1CC1)*; Val(3-OH) = CC(C)(O)[C@H](N)C(=O)O; 4Pal = N[C@@H](Cc1ccncc1)C(=O)O; Cha = N[C@@H](CC1CCCCC1)C(=O)O; Cit = NC(=O)NCCC[C@H](N)C(=O)O; Ile(3ξ) = CCC(C)[C@H](N)C(=O)O; Thr(3ξ) = CC(O)[C@H](N)C(=O)O; Tle = CC(C)(C)[C@H](N)C(=O)O; ξCha = NC(CC1CCCCC1)C(=O)O; Carboxymethyl = O=C(O)C*; NMeA = CN[C@@H](C)C(=O)O; Nle = CCCC[C@H](N)C(=O)O; Orn = NCCC[C@H](N)C(=O)O; Pra = C#CC[C@H](N)C(=O)O; Dab = NCC[C@H](N)C(=O)O; Dap = NC[C@H](N)C(=O)O; ξC = NC(CS)C(=O)O; Acm = CC(=O)NC*
molecular target: T1, PE-labeled human PD-L1-Ig binding to Jurkat cell line over-expressing human PD-1 (Jurkat-PD-1) (Homo sapiens, UniProt Q15116); experiment: Jurkat-PD-1 Cell Binding High-Content Screening Assay (CBA): Method 1; settings: Jurkat-hPD-1 cells, PE-labeled PD-L1-Ig 20 nM final; read-out: Jurkat HPDL1 PD1 IC50 (uM) (Method 1)
T1 construct: expressed in transfected cells; host or cells: Jurkat
T1 sequence (Q15116 25-288): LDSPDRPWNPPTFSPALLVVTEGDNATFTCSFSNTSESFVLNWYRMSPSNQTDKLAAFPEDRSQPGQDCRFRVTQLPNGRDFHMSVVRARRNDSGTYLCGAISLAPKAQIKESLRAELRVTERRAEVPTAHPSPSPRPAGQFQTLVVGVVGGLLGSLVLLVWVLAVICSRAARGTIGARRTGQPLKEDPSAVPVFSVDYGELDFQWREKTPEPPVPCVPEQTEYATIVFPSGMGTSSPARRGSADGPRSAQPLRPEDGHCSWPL

SMILES	IC50
COc1cccc(C[C@@H]2NC(=O)[C@H](CC(=O)O)NC(=O)[C@H](Cc3ccc(O)cc3)NC(=O)[C@H](CC(N)=O)NC(=O)CSC[C@@H](C(=O)N[C@@H](C)C(N)=O)NC(=O)[C@H]([C@@H](C)O)NC(=O)[C@H](C(C)C)NC(=O)[C@H](CC(C)C)NC(=O)[C@H](CCN)NC(=O)[C@@H](CC(C)C)NC(=O)[C@H](C)N(C)C(=O)[C@H](C(C)C)NC(=O)[C@H](Cc3ccc(-c4ccccc4)cc3)NC(=O)[C@H](C(C)C)NC2=O)c1 [Compound 1277] ({CH2CO}-NYD[Phe(3-OMe)]V[Bip]V[NMeA][dL][Dab]LVTCA-NH2; thioether N-14)	0.02 µM
Cc1cccc(C[C@@H]2NC(=O)[C@H](CC(=O)O)NC(=O)[C@H](Cc3ccc(OCC(=O)O)cc3)NC(=O)[C@H](CN)NC(=O)CSC[C@@H](C(N)=O)NC(=O)[C@H](CC(N)=O)NC(=O)[C@H](C(C)C)NC(=O)[C@H](CC3CCCCC3)NC(=O)[C@H](CCN)NC(=O)[C@@H](CC(C)C)NC(=O)[C@H](C)N(C)C(=O)[C@H](Cc3ccc(OCC(=O)O)cc3)NC(=O)[C@H](Cc3ccc(-c4ccccc4)cc3)NC(=O)[C@H](Cc3ccc(OCC(=O)O)cc3)NC2=O)c1 [Compound 1648] ({CH2CO}-[Dap]Y(Carboxymethyl)D[Phe(3-Me)]Y(Carboxymethyl)[Bip]Y(Carboxymethyl)[NMeA][dL][Dab][Cha]VNC-NH2; thioether N-14)	0.03 µM
CC(=O)NCSC[C@@H]1NC(=O)[C@H](Cc2cccc(C)c2)NC(=O)[C@H](CC(=O)O)NC(=O)[C@H](Cc2ccncc2)NC(=O)[C@H](Cc2ccc(OCC(=O)O)cc2)NC(=O)CSCC(C(=O)NCC(N)=O)NC(=O)[C@H](CO)NC(=O)[C@H](C(C)C)NC(=O)[C@H](CC(C)C)NC(=O)[C@H](CC(N)=O)NC(=O)[C@@H](CC(C)C)NC(=O)[C@H](C)N(C)C(=O)[C@H](CSCNC(C)=O)NC(=O)[C@H](Cc2ccc(-c3ccccc3)cc2)NC1=O (stereo partly drawn) [Compound 1888] ({CH2CO}-Y(Carboxymethyl)[4Pal]D[Phe(3-Me)]C(Acm)[Bip]C(Acm)[NMeA][dL]NLVS[ξC]G-NH2; thioether N-14)	0.2 µM
CCCC[C@@H]1NC(=O)[C@H](CC(N)=O)NC(=O)[C@@H](C)NC(=O)[C@H](C)N(C)C(=O)[C@H](C(C)C)NC(=O)[C@H](Cc2ccc(-c3ccccc3)cc2)NC(=O)[C@H](CC(C)C)NC(=O)[C@H](Cc2c[nH]c3ccccc23)NC(=O)[C@H](CC(=O)O)NC(=O)[C@H](Cc2ccc(O)cc2)NC(=O)[C@H](Cc2ccccc2)NC(=O)CSC[C@@H](C(=O)N[C@@H](C)C(N)=O)NC(=O)[C@H]([C@@H](C)O)NC(=O)[C@H](C(C)C)NC1=O [Compound 1778] ({CH2CO}-FYDWL[Bip]V[NMeA][dA]N[Nle]VTCA-NH2; thioether N-14)	0.07 µM
CC(C)C[C@@H]1NC(=O)[C@H](CCN)NC(=O)[C@@H](CC(C)C)NC(=O)[C@H](C)N(C)C(=O)[C@H](CCCNC(=N)N)NC(=O)[C@H](Cc2ccc(-c3ccccc3)cc2)NC(=O)[C@H](C(C)C)NC(=O)[C@H](Cc2c[nH]c3ccc(C#N)cc23)NC(=O)[C@H](CC(=O)O)NC(=O)[C@H](Cc2ccc(O)cc2)NC(=O)[C@H](Cc2ccccc2)NC(=O)CSC[C@@H](C(=O)N[C@@H](C)C(N)=O)NC(=O)[C@H]([C@@H](C)O)NC(=O)[C@H](C(C)C)NC1=O [Compound 1203] ({CH2CO}-FYD[Trp(5-CN)]V[Bip]R[NMeA][dL][Dab]LVTCA-NH2; thioether N-14)	0.1 µM
Cc1cccc(C[C@@H]2NC(=O)[C@H](CC(=O)O)NC(=O)[C@H](Cc3ccc(OCC(=O)O)cc3)NC(=O)[C@H](C(C)O)NC(=O)CSC[C@@H](C(=O)N[C@@H](CCN)C(N)=O)NC(=O)[C@H](Cc3cnc[nH]3)NC(=O)[C@H](C(C)(C)O)NC(=O)[C@H](CC3CCCCC3)NC(=O)[C@H](CCN)NC(=O)[C@@H](CC(C)C)NC(=O)[C@H](C)N(C)C(=O)[C@H](Cc3ccc(C(N)=O)cc3)NC(=O)[C@H](Cc3ccc(-c4ccccc4)cc3)NC(=O)[C@H](Cc3ccc(OCC(=O)O)cc3)NC2=O)c1 (stereo partly drawn) [Compound 2158] ({CH2CO}-[Thr(3ξ)]Y(Carboxymethyl)D[Phe(3-Me)]Y(Carboxymethyl)[Bip][Phe(4-CONH2)][NMeA][dL][Dab][Cha][Val(3-OH)]HC[Dab]-NH2; thioether N-14)	0.02 µM
CC(C)C[C@@H]1NC(=O)[C@H](Cc2c[nH]c3ccccc23)NC(=O)[C@H](CC(=O)O)NC(=O)[C@H](Cc2ccc(C(=O)O)cc2)NC(=O)[C@H](Cc2ccc(OCC(=O)O)cc2)NC(=O)CSC[C@@H](C(=O)N[C@@H](CC(N)=O)C(N)=O)NC(=O)[C@H](CO)NC(=O)[C@H](C(C)(C)C)NC(=O)[C@H](CC2CCCCC2)NC(=O)[C@H](CCN)NC(=O)[C@@H](CC(C)C)NC(=O)[C@H](C)N(C)C(=O)[C@H](C(C)C)NC(=O)[C@H](Cc2ccc(-c3ccccc3)cc2)NC1=O [Compound 1914] ({CH2CO}-Y(Carboxymethyl)[Phe(4-COOH)]DWL[Bip]V[NMeA][dL][Dab][Cha][Tle]SCN-NH2; thioether N-14)	0.01 µM
CC(C)C[C@@H]1NC(=O)[C@H](Cc2c[nH]c3ccccc23)NC(=O)[C@H](CC(=O)O)NC(=O)[C@H](Cc2ccc(OCC(=O)O)cc2)NC(=O)[C@H](Cc2ccccc2)NC(=O)CSC[C@@H](C(=O)NCC(N)=O)NC(=O)[C@H](CO)NC(=O)[C@H](C(C)C)NC(=O)[C@H](CC(C)C)NC(=O)[C@H](CC(N)=O)NC(=O)[C@@H](CC(C)C)NC(=O)[C@H](C)N(C)C(=O)[C@H](C(C)C)NC(=O)[C@H](Cc2ccc(-c3ccccc3)cc2)NC1=O [Compound 1526] ({CH2CO}-FY(Carboxymethyl)DWL[Bip]V[NMeA][dL]NLVSCG-NH2; thioether N-14)	0.01 µM
CCC(C)[C@@H]1NC(=O)[C@H](Cc2ccc(-c3ccccc3)cc2)NC(=O)[C@H](CC(C)C)NC(=O)[C@H](Cc2c[nH]c3ccccc23)NC(=O)[C@H](CC(=O)O)NC(=O)[C@H](Cc2ccc(C(=O)O)cc2)NC(=O)[C@H](Cc2ccc(OCC(=O)O)cc2)NC(=O)CSC[C@@H](C(=O)N[C@@H](CC(N)=O)C(N)=O)NC(=O)[C@H](CCC(=O)O)NC(=O)[C@H](C(C)C)NC(=O)[C@H](CC2CCCCC2)NC(=O)[C@H](CCN)NC(=O)[C@@H](CC(C)C)NC(=O)[C@H](C)N(C)C1=O (stereo partly drawn) [Compound 1924] ({CH2CO}-Y(Carboxymethyl)[Phe(4-COOH)]DWL[Bip][Ile(3ξ)][NMeA][dL][Dab][Cha]VECN-NH2; thioether N-14)	0.04 µM
Cc1cccc(C[C@@H]2NC(=O)[C@H](CC(=O)O)NC(=O)[C@H](Cc3ccc(OCC(=O)O)cc3)NC(=O)[C@H](CCCNC(=O)C3CC3)NC(=O)CSC[C@@H](C(=O)N[C@@H](CO)C(N)=O)NC(=O)[C@H](CO)NC(=O)[C@H](C(C)O)NC(=O)C(CC3CCCCC3)NC(=O)[C@H](CCCNC(=N)N)NC(=O)[C@@H](CC(C)C)NC(=O)[C@H](C)N(C)C(=O)[C@H](CCCNC(N)=O)NC(=O)[C@H](Cc3ccc(-c4ccccc4)cc3)NC(=O)[C@H](C(C)C)NC2=O)c1 (stereo partly drawn) [Compound 2113] ({CH2CO}-[Orn](Cyclopropanecarbonyl)Y(Carboxymethyl)D[Phe(3-Me)]V[Bip][Cit][NMeA][dL]R[ξCha][Thr(3ξ)]SCS-NH2; thioether N-14)	0.02 µM
CC[C@H](C)[C@@H]1NC(=O)[C@H](Cc2ccc(-c3ccccc3)cc2)NC(=O)[C@H](CC(C)C)NC(=O)[C@H](Cc2c[nH]c3ccccc23)NC(=O)[C@H](CC(=O)O)NC(=O)[C@H](Cc2ccc(OCC(=O)O)cc2)NC(=O)[C@H](Cc2ccccc2)NC(=O)CSC[C@@H](C(N)=O)NC(=O)[C@H](CO)NC(=O)[C@H](C(C)C)NC(=O)[C@H](CC(C)C)NC(=O)[C@H](CC(N)=O)NC(=O)[C@@H](CC(C)C)NC(=O)[C@H](C)N(C)C1=O [Compound 1629] ({CH2CO}-FY(Carboxymethyl)DWL[Bip]I[NMeA][dL]NLVSC-NH2; thioether N-14)	0.05 µM
C#CC[C@H](NC(=O)CNC(=O)[C@@H]1CSCC(=O)N[C@@H](Cc2ccc(OCC(=O)O)cc2)C(=O)N[C@@H](Cc2ccc(C(=O)O)cc2)C(=O)N[C@@H](CC(=O)O)C(=O)N[C@@H](Cc2c[nH]c3ccccc23)C(=O)N[C@@H](CC(C)C)C(=O)N[C@@H](Cc2ccc(-c3ccccc3)cc2)C(=O)N[C@@H](C(C)C)C(=O)N(C)[C@@H](C)C(=O)N[C@H](CC(C)C)C(=O)N[C@@H](CCN)C(=O)N[C@@H](CC2CCCCC2)C(=O)N[C@@H](C(C)(C)O)C(=O)N[C@@H](CO)C(=O)N1)C(N)=O [Compound 1933] ({CH2CO}-Y(Carboxymethyl)[Phe(4-COOH)]DWL[Bip]V[NMeA][dL][Dab][Cha][Val(3-OH)]SCG[Pra]-NH2; thioether N-14)	0.01 µM
CC(C)C[C@@H]1NC(=O)[C@H](CCCNC(=N)N)NC(=O)[C@@H](CC(C)C)NC(=O)[C@H](C)N(C)C(=O)[C@H](CCCNC(=N)N)NC(=O)[C@H](Cc2ccc(-c3ccccc3)cc2)NC(=O)[C@H](C(C)C)NC(=O)[C@H](Cc2c[nH]c3c(Cl)cccc23)NC(=O)[C@H](CC(=O)O)NC(=O)[C@H](Cc2ccc(O)cc2)NC(=O)[C@H](Cc2ccccc2)NC(=O)CSC[C@@H](C(=O)N[C@@H](C)C(N)=O)NC(=O)[C@H]([C@@H](C)O)NC(=O)[C@H](C(C)C)NC1=O [Compound 1098] ({CH2CO}-FYD[Trp(7-Cl)]V[Bip]R[NMeA][dL]RLVTCA-NH2; thioether N-14)	0.13 µM
CC[C@H](C)[C@@H]1NC(=O)[C@H](Cc2ccc(-c3ccccc3)cc2)NC(=O)[C@H](C(C)(C)O)NC(=O)[C@H](Cc2cccc(C)c2)NC(=O)[C@H](CC(=O)O)NC(=O)[C@H](Cc2ccc(O)cc2)NC(=O)[C@H](CC(N)=O)NC(=O)CSC[C@@H](C(=O)N[C@@H](CCN)C(N)=O)NC(=O)[C@H]([C@@H](C)O)NC(=O)[C@H](C(C)C)NC(=O)[C@H](CC(C)C)NC(=O)[C@H](CCN)NC(=O)[C@@H](CC(C)C)NC(=O)[C@H](C)N(C)C1=O [Compound 1686] ({CH2CO}-NYD[Phe(3-Me)][Val(3-OH)][Bip]I[NMeA][dL][Dab]LVTC[Dab]-NH2; thioether N-14)	0.16 µM

Source: patent US20240409585A1, “MACROCYCLIC IMMUNOMODULATORS” (priority 2021, published 2024)
